From patent US10266526B2, “Substituted 1,2,3-triazoles as SMYD inhibitors for treating cancer” (EPIZYME, INC., priority 2014, dated 2019) come the findings set out here.

SMYD3, sequence (Q9H7B4 whole entry): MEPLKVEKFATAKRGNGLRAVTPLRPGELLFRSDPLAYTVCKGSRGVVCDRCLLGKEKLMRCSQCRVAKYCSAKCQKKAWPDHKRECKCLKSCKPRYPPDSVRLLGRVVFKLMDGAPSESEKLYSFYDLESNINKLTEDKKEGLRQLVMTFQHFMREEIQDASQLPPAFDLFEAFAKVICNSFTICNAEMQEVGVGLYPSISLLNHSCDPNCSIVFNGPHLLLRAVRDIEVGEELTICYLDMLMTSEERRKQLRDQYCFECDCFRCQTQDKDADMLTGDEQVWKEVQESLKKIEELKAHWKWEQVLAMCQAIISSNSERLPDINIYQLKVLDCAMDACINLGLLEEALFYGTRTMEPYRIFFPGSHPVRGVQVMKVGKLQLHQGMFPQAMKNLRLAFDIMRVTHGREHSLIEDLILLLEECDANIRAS

In the first assay the target is SMYD3 (Homo sapiens (Human), UniProt Q9H7B4). The experiment in a line: SMYD3 biochemical assay (SMYD3 enzyme assay on MEKK2 protein substrate, 3H-SAM scintillation proximity assay). As to conditions: Table 1A; average of n = 1 to n = 50; read-out: SMYD3 Biochem IC50. A digest of the protocol:
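Native full-length human SMYD3, expressed in E. coli, was preincubated with compound for 30 min at room temperature in 25 mM Tris-Cl pH 8.0, 1 mM TCEP, 0.005% BSG and 0.005% Tween 20. ³H-SAM plus GST-MEKK2 then started the reaction. It was stopped with unlabeled SAM (100 uM final), and methylated MEKK2 was read by SPA.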
On the technique in general: Scintillation proximity formats need no separation of bound from free tracer.
With `N[C@H]1CC[C@H](C(=O)N2CCC(NC(=O)c3nnc[nH]3)CC2)CC1` [compound 555, N-(1-((1r,4r)-4-aminocyclohexane-1-carbonyl)piperidin-4-yl)-4H-1,2,4-triazole-3-carboxamide], the IC50 – broadly, the point on the concentration scale where inhibition reaches its midpoint – is over 50000 nM.
Same read-out and setting: for `NCCC(=O)N1CCC(NC(=O)c2nnc[nH]2)CC1` [compound 556, N-(1-(3-aminopropanoyl)piperidin-4-yl)-4H-1,2,4-triazole-3-carboxamide] the value was over 50000 nM; for `N[C@H]1CC[C@H](NC(=O)c2cc3c(cn2)NC(=O)C3)CC1` [compound 559, N-((1r,4r)-4-aminocyclohexyl)-2-oxo-2,3-dihydro-1H-pyrrolo[2,3-c]pyridine-5-carboxamide], 3490 nM; for `CN(C(=O)c1ncn[nH]1)[C@H]1CC[C@H](N)CC1` [compound 561, N-((1r,4r)-4-aminocyclohexyl)-N-methyl-1H-1,2,4-triazole-5-carboxamide], over 10000 nM.
Still for that read-out and setting: for `Cc1c[nH]c(C(=O)N[C@H]2CC[C@H](N)CC2)n1` [compound 562, N-((1r,4r)-4-aminocyclohexyl)-4-methyl-1H-imidazole-2-carboxamide] the value was over 10000 nM.
Consider `N[C@H]1CC[C@H](NC(=O)c2cc3cc(Br)ccc3nc2O)CC1` [compound 565, N-((1r,4r)-4-aminocyclohexyl)-6-bromo-2-hydroxyquinoline-3-carboxamide], for which the IC50 was over 10000 nM.
On to `NCCC(=O)N[C@H]1CC[C@H](NC(=O)c2cc3cc(Br)ccc3nc2O)CC1` [compound 566, N-((1r,4r)-4-(3-aminopropanamido)cyclohexyl)-6-bromo-2-hydroxyquinoline-3-carboxamide], for which the IC50 was over 10000 nM.
As to `Nc1nc(C(=O)N[C@H]2CC[C@H](N)CC2)c[nH]1` [compound 572, 2-amino-N-((1r,4r)-4-aminocyclohexyl)-1H-imidazole-4-carboxamide], the IC50 was over 10000 nM.
Turning to `N[C@H]1CC[C@H](NC(=O)c2cnc3ncccn23)CC1` [compound 574, N-((1r,4r)-4-aminocyclohexyl)imidazo[1,2-a]pyrimidine-3-carboxamide], the IC50 was over 10000 nM.

The target of a further assay is SMYD2 (Homo sapiens (Human), UniProt Q9NRG4). The experiment in a line: SMYD2 biochemical assay (SMYD2 enzyme assay on peptide substrate, 3H-SAM Flashplate).
SMYD2, sequence (Q9NRG4 whole entry): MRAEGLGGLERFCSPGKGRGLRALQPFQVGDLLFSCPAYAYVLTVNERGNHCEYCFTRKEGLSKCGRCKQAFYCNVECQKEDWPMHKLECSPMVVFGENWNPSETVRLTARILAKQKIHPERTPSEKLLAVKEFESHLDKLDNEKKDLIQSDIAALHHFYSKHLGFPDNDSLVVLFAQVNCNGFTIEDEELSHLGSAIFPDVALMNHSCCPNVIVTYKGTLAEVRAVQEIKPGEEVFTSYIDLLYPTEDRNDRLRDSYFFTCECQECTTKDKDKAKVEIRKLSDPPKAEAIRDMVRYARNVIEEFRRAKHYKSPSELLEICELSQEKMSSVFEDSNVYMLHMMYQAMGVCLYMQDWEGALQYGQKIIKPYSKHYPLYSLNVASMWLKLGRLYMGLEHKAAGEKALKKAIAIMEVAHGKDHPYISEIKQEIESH
Conditions: not given
The molecule `C[C@H](c1ccccc1)N1C[C@@H](NC(=O)c2cn(C3CC3)nn2)C1(C)C` (racemic) [compound 984, rac-1-cyclopropyl-N-((R)-2,2-dimethyl-1-((R)-1-phenylethyl)azetidin-3-yl)-1H-1,2,3-triazole-4-carboxamide] displayed an IC50 of 18900 nM.
Same read-out and setting: next, `C[C@@H](c1ccccc1)N1C[C@@H](NC(=O)c2cn(C3CC3)nn2)C1(C)C` (racemic) [compound 1026, rac-1-cyclopropyl-N-((R)-2,2-dimethyl-1-((S)-1-phenylethyl)azetidin-3-yl)-1H-1,2,3-triazole-4-carboxamide]: 910 nM.
Still for that read-out and setting: for `C[C@H](c1cccc(OCCO)c1Cl)N1CC(NC(=O)c2cn(C3CC3)nn2)C1` (single isomer, unassigned) [compound 832] the value was 14300 nM.

Staying with this assay, now noted: SMYD2 Biochem IC50, IC50 values are an average of n = 1 to n = 50.
Turning to `C[C@@H](c1ccc(OCc2ccccc2)cc1)N1CC(NC(=O)c2cn(C3CC3)nn2)C1` (single isomer, unassigned) [compound 778], the IC50 turned out to be 84.5 nM.
On the same count and under the same terms, for `C[C@H](c1ccc(OCc2ccccc2)cc1)N1CC(NC(=O)c2cn(C3CC3)nn2)C1` (single isomer, unassigned) [compound 788] the value was 414 nM.

The same assay, now with this note: read-out: SMYD2 Biochem IC50; IC50 values are an average of n = 1 to n = 50.
For the molecule `C[C@@H](c1cccc(OCCO)c1Cl)N1CC(NC(=O)c2cn(C3CC3)nn2)C1` (single isomer, unassigned) [compound 831], the IC50 was 57.8 nM.
For `CC(C)N1CC(NC(=O)c2cc(C3CC3)cnn2)C1` [compound 645, 5-cyclopropyl-N-[1-(propan-2-yl)azetidin-3-yl]pyridazine-3-carboxamide], the IC50 worked out at 745 nM.
Same read-out and setting: for `C[C@@H](c1ccccc1)N1CC(NC(=O)c2cc(C3CC3)cnn2)C1` [compound 646, 5-cyclopropyl-N-{1-[(1S)-1-phenylethyl]azetidin-3-yl}pyridazine-3-carboxamide] the value was 516 nM; for `C[C@H](c1ccccc1)N1CC(NC(=O)c2cc(C3CC3)cnn2)C1` [compound 647, 5-cyclopropyl-N-{1-[(1R)-1-phenylethyl]azetidin-3-yl}pyridazine-3-carboxamide], 7800 nM; for `Cn1cnc(CN2CC(NC(=O)c3cc(C4CC4)cnn3)C2)c1Cl` [compound 648, N-{1-[(5-chloro-1-methyl-1H-imidazol-4-yl)methyl]azetidin-3-yl}-5-cyclopropylpyridazine-3-carboxamide], 7330 nM.
On the same count and under the same terms, for `CC(c1cc(Cl)ccc1Cl)N1CC(NC(=O)c2cc(C3CC3)cnn2)C1` (stereo not shown) [compound 649, 5-cyclopropyl-N-{1-[1-(2,5-dichlorophenyl)ethyl]azetidin-3-yl}pyridazine-3-carboxamide] the value was 140 nM; for `COc1c(OCCO)cccc1C(C)N1CC(NC(=O)c2cc(C3CC3)cnn2)C1` (stereo not shown) [compound 650, 5-cyclopropyl-N-(1-{1-[3-(2-hydroxyethoxy)-2-methoxyphenyl]ethyl}azetidin-3-yl)pyridazine-3-carboxamide], 312 nM.
Consider `O=C(NC1CN(Cc2ccccc2)C1)c1cc(C2CC2)cnn1` [compound 651, N-(1-benzylazetidin-3-yl)-5-cyclopropylpyridazine-3-carboxamide], for which the IC50 worked out at 541 nM.
In the case of `CC(c1cccc(OCCO)c1Cl)N1CC(NC(=O)c2cc(C3CC3)cnn2)C1` (stereo not shown) [compound 652, N-(1-{1-[2-chloro-3-(2-hydroxyethoxy)phenyl]ethyl}azetidin-3-yl)-5-cyclopropylpyridazine-3-carboxamide], the IC50 turned out to be 41.6 nM.
Regarding `O=C(NC1CNC1)c1cn(C2CC2)nn1` [compound 657, N-(azetidin-3-yl)-1-cyclopropyl-1H-1,2,3-triazole-4-carboxamide], the IC50 was found to be 10400 nM.
Still for that read-out and setting: for `CN1CC(NC(=O)c2cn(C3CC3)nn2)C1` [compound 659, 1-cyclopropyl-N-(1-methylazetidin-3-yl)-1H-1,2,3-triazole-4-carboxamide] the value was 2840 nM; for `CCCN1CC(NC(=O)c2cn(C3CC3)nn2)C1` [compound 660, 1-cyclopropyl-N-(1-propylazetidin-3-yl)-1H-1,2,3-triazole-4-carboxamide], 1170 nM; for `CC(C)N1CC(NC(=O)c2cn(C3CC3)nn2)C1` [compound 662, 1-cyclopropyl-N-[1-(propan-2-yl)azetidin-3-yl]-1H-1,2,3-triazole-4-carboxamide], 846 nM.
Still for that read-out and setting: next, `CC(C)N1CC(NC(=O)c2cn(C3CC3)nn2)C1` [compound 663, 1-cyclopropyl-N-[1-(propan-2-yl)azetidin-3-yl]-1H-1,2,3-triazole-4-carboxamide]: 585 nM; `O=C(NC1CN(CC2CC2)C1)c1cn(C2CC2)nn1` [compound 665, 1-cyclopropyl-N-[1-(cyclopropylmethyl)azetidin-3-yl]-1H-1,2,3-triazole-4-carboxamide]: 2000 nM.
With `O=C(NC1CN(CC2COC2)C1)c1cn(C2CC2)nn1` [compound 666, 1-cyclopropyl-N-[1-(oxetan-3-ylmethyl)azetidin-3-yl]-1H-1,2,3-triazole-4-carboxamide], the 50% inhibitory concentration (IC50) is 6060 nM.
Same read-out and setting: next, `COCCN1CC(NC(=O)c2cn(C3CC3)nn2)C1` [compound 667, 1-cyclopropyl-N-[1-(2-methoxyethyl)azetidin-3-yl]-1H-1,2,3-triazole-4-carboxamide]: 2460 nM.
